Laboratory results as given in ChEMBL document CHEMBL1201862, “PubChem BioAssay data set” (2004).
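Test compounds were applied to cells in 96-well plates for 48 hours at 5 doses. GI50: concentration for 50% inhibition of growth.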 Activity calls are given as the source filed them. Cut-off read from the data, not from the text of the source: active = GI50 up to about 1.1 µM and inactive = higher.

Assays:
Assay in all cases: NCI anticancer screen, dose series, 48 h
A549 = tested on: A549
NCI-H23 = tested on: NCI-H23
LOX IMVI = tested on: LOX IMVI
TK-10 = tested on: TK-10
NCI-H226 = tested on: NCI-H226
SW-620 = tested on: SW-620
CCRF-CEM = tested on: CCRF-CEM
SNB-19 = tested on: SNB-19
SF-295 = tested on: SF-295
EKVX = tested on: EKVX
HT-29 = tested on: HT-29
OVCAR-4 = tested on: OVCAR-4
M14 = tested on: M14
KM12 = tested on: KM12
HCT-15 = tested on: HCT-15
RPMI-8226 = tested on: RPMI-8226
SK-MEL-28 = tested on: SK-MEL-28
SR = tested on: SR

SMILES	GI50 (A549)	GI50 (NCI-H23)	GI50 (LOX IMVI)	GI50 (TK-10)	GI50 (NCI-H226)	GI50 (SW-620)	GI50 (CCRF-CEM)	GI50 (SNB-19)	GI50 (SF-295)	GI50 (EKVX)	GI50 (HT-29)	GI50 (OVCAR-4)	GI50 (M14)	GI50 (KM12)	GI50 (HCT-15)	GI50 (RPMI-8226)	GI50 (SK-MEL-28)	GI50 (SR)
CCc1cccc(C(C)CC)c1NC(=O)C(=O)Cc1nc2ccccc2o1 (stereo not drawn)	> 50 µM (inactive)	> 50 µM (inactive)	> 50 µM (inactive)	> 50 µM (inactive)	3.82 µM (inactive)	> 50 µM (inactive)	> 50 µM (inactive)	> 50 µM (inactive)	> 50 µM (inactive)	> 50 µM (inactive)	> 50 µM (inactive)	> 50 µM (inactive)	> 50 µM (inactive)	> 50 µM (inactive)	> 50 µM	> 50 µM (inactive)	> 50 µM (inactive)	–
CN(C)CCNC(=O)c1cccc2c1nc(-c1ccncc1)c1ccccc12	0.552 µM (active)	3.07 µM (inactive)	1.35 µM (inactive)	2.21 µM (inactive)	1.95 µM (inactive)	1.11 µM (active)	2.4 µM (inactive)	3.94 µM (inactive)	2.85 µM (inactive)	2.47 µM (inactive)	3.32 µM (inactive)	4.01 µM (inactive)	4.83 µM (inactive)	5.28 µM (inactive)	1.99 µM	–	5.15 µM (inactive)	–
CC1=C(C(=O)Nc2cccc(Cl)c2)C(c2ccccc2F)C(C(=O)Nc2cccc(Cl)c2)=C(C)N1	7.78 µM (inactive)	12.2 µM (inactive)	7.1 µM (inactive)	21.5 µM (inactive)	11.3 µM (inactive)	21.6 µM (inactive)	4.61 µM (inactive)	19.2 µM (inactive)	17.3 µM (inactive)	6.22 µM (inactive)	5.43 µM (inactive)	5.83 µM (inactive)	5.33 µM (inactive)	7.55 µM (inactive)	–	2.77 µM (inactive)	10.6 µM (inactive)	–
CCCN1CC=CCC1	> 100 µM (inactive)	> 100 µM (inactive)	> 100 µM (inactive)	> 100 µM (inactive)	–	> 100 µM (inactive)	2.09 µM (inactive)	> 100 µM (inactive)	> 100 µM (inactive)	> 100 µM (inactive)	> 100 µM (inactive)	–	> 100 µM (inactive)	> 100 µM (inactive)	> 100 µM	> 100 µM (inactive)	> 100 µM (inactive)	> 100 µM (inactive)
COc1ccc2oc3c4c2c1CCC4CCC3=O (stereo not drawn)	> 100 µM (inactive)	> 100 µM (inactive)	> 100 µM (inactive)	5.47 µM (inactive)	–	> 100 µM (inactive)	> 100 µM (inactive)	> 100 µM (inactive)	> 100 µM (inactive)	> 100 µM (inactive)	> 100 µM (inactive)	33 µM (inactive)	> 100 µM (inactive)	> 100 µM (inactive)	–	> 100 µM (inactive)	> 100 µM (inactive)	> 100 µM (inactive)
CCOP(=O)(OCC)C(C(=O)OC)C(=O)C(=O)Nc1c(C)cc(Br)cc1C (stereo not drawn)	> 100 µM (inactive)	> 100 µM (inactive)	> 100 µM (inactive)	> 100 µM (inactive)	> 100 µM (inactive)	> 100 µM (inactive)	> 100 µM (inactive)	> 100 µM (inactive)	–	> 100 µM (inactive)	> 100 µM (inactive)	> 100 µM (inactive)	> 100 µM (inactive)	> 100 µM (inactive)	> 100 µM	> 100 µM (inactive)	> 100 µM (inactive)	–
CCOc1ccc2c(c1)[n+]([O-])c(S(=O)(=O)c1ccc(C)cc1)c(N)[n+]2[O-]	> 100 µM (inactive)	> 100 µM (inactive)	–	> 100 µM (inactive)	> 100 µM (inactive)	> 100 µM (inactive)	> 100 µM (inactive)	> 100 µM (inactive)	> 100 µM (inactive)	> 100 µM (inactive)	> 100 µM (inactive)	> 100 µM (inactive)	> 100 µM (inactive)	> 100 µM (inactive)	–	> 100 µM (inactive)	> 100 µM (inactive)	–
COCCOCOC(CCCCO)c1cc(C)c(O[Si](C)(C)C(C)(C)C)c(C)c1 (stereo not drawn)	3.68 µM (inactive)	5.55 µM (inactive)	5.66 µM (inactive)	13.4 µM (inactive)	2.41 µM (inactive)	7.31 µM (inactive)	4.39 µM (inactive)	6.35 µM (inactive)	3.97 µM (inactive)	8.17 µM (inactive)	–	–	10.3 µM (inactive)	4.59 µM (inactive)	7.36 µM	2.08 µM (inactive)	12.3 µM (inactive)	–
CC1C2=CC=C(O2)C(C)(C)C2=CC=C(O2)C(C)(C)C2=CC=C(O2)C(C)(C)C2=CC=C1O2	> 100 µM (inactive)	> 100 µM (inactive)	> 100 µM (inactive)	> 100 µM (inactive)	> 100 µM (inactive)	> 100 µM (inactive)	> 100 µM (inactive)	> 100 µM (inactive)	> 100 µM (inactive)	> 100 µM (inactive)	> 100 µM (inactive)	> 100 µM (inactive)	–	> 100 µM (inactive)	> 100 µM	–	> 100 µM (inactive)	> 100 µM (inactive)
Oc1cc(-c2ccccn2)nc2cccc(F)c12	> 100 µM (inactive)	> 100 µM (inactive)	89.9 µM (inactive)	> 100 µM (inactive)	> 100 µM (inactive)	> 100 µM (inactive)	> 100 µM (inactive)	> 100 µM (inactive)	> 100 µM (inactive)	> 100 µM (inactive)	> 100 µM (inactive)	> 100 µM (inactive)	> 100 µM (inactive)	> 100 µM (inactive)	–	> 100 µM (inactive)	0.644 µM (active)	> 100 µM (inactive)
Cc1cc(N(CCC#N)CCC#N)ccc1/C=C1N=C(/C=C/c2ccccc2)N(c2ccc(S(N)(=O)=O)cc2)C\1=O	> 100 µM (inactive)	> 100 µM (inactive)	> 100 µM (inactive)	> 100 µM (inactive)	> 100 µM (inactive)	> 100 µM (inactive)	> 100 µM (inactive)	> 100 µM (inactive)	> 100 µM (inactive)	–	> 100 µM (inactive)	> 100 µM (inactive)	> 100 µM (inactive)	> 100 µM (inactive)	> 100 µM	34.3 µM (inactive)	> 100 µM (inactive)	> 100 µM (inactive)
BrC1(Br)C2/C=C\CCCCC21 (stereo not drawn)	> 100 µM (inactive)	> 100 µM (inactive)	> 100 µM (inactive)	> 100 µM (inactive)	> 100 µM (inactive)	> 100 µM (inactive)	> 100 µM (inactive)	> 100 µM (inactive)	> 100 µM (inactive)	> 100 µM (inactive)	> 100 µM (inactive)	> 100 µM (inactive)	–	> 100 µM (inactive)	–	–	> 100 µM (inactive)	> 100 µM (inactive)
COc1ccc(C(=O)Cc2c(C(=O)c3ccccc3)c3ccccc3n2C(=O)c2ccccc2)cc1	35.7 µM (inactive)	50.2 µM (inactive)	–	> 100 µM (inactive)	> 100 µM (inactive)	29.8 µM (inactive)	46.6 µM (inactive)	92 µM (inactive)	31.3 µM (inactive)	–	> 100 µM (inactive)	32.2 µM (inactive)	> 100 µM (inactive)	53.8 µM (inactive)	46 µM	11.9 µM (inactive)	> 100 µM (inactive)	23.8 µM (inactive)
CC1(c2ccc(F)cc2)C2C(=O)NC(=O)C1C(=O)NC2=O (stereo not drawn)	> 100 µM (inactive)	> 100 µM (inactive)	> 100 µM (inactive)	> 100 µM (inactive)	> 100 µM (inactive)	> 100 µM (inactive)	> 100 µM (inactive)	> 100 µM (inactive)	> 100 µM (inactive)	> 100 µM (inactive)	> 100 µM (inactive)	> 100 µM (inactive)	> 100 µM (inactive)	> 100 µM (inactive)	> 100 µM	> 100 µM (inactive)	> 100 µM (inactive)	–
Cc1c(C(=O)/C=C/c2ccco2)[n+]([O-])c2ccccc2[n+]1[O-]	> 100 µM (inactive)	> 100 µM (inactive)	> 100 µM (inactive)	> 100 µM (inactive)	> 100 µM (inactive)	> 100 µM (inactive)	36.1 µM (inactive)	> 100 µM (inactive)	> 100 µM (inactive)	> 100 µM (inactive)	> 100 µM (inactive)	–	> 100 µM (inactive)	> 100 µM (inactive)	–	41.8 µM (inactive)	> 100 µM (inactive)	55.2 µM (inactive)
CC1=NN(c2ccccc2)C(=O)C1=C1SCCS1	> 70 µM (inactive)	> 100 µM (inactive)	42.6 µM (inactive)	> 55.1 µM (inactive)	> 64 µM (inactive)	> 38.3 µM (inactive)	29.2 µM (inactive)	> 86.7 µM (inactive)	> 71.8 µM (inactive)	47.5 µM (inactive)	> 74.5 µM (inactive)	> 100 µM (inactive)	> 79.4 µM (inactive)	> 88.9 µM (inactive)	40.9 µM	> 25.8 µM (inactive)	> 100 µM (inactive)	–
O=C(O)CNS(=O)(=O)c1ccc(NCc2ccccc2)cc1	> 100 µM (inactive)	> 100 µM (inactive)	> 100 µM (inactive)	> 100 µM (inactive)	> 100 µM (inactive)	> 100 µM (inactive)	> 100 µM (inactive)	> 100 µM (inactive)	–	> 100 µM (inactive)	> 100 µM (inactive)	> 100 µM (inactive)	> 100 µM (inactive)	–	> 100 µM	> 100 µM (inactive)	> 100 µM (inactive)	–
